No end group written: not given here.
Columns and labels:
[1] = biological target: T1, HE4 protein (Homo sapiens, UniProt Q14508); assay: ELISA assay of binding affinity and specificity; conditions: HRP-conjugated M13 antibody, TMB, FIG. 1
T1 construct: purchased Sinobiological, PA, USA
T1 sequence (Q14508 31-124): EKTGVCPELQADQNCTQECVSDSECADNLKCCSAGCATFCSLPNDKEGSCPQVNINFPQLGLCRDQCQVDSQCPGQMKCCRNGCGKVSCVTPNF
Procedure: (§1) In order to evaluate the binding affinity and specificity of the discovered SEQ ID NO: 1 peptide to the CA125 protein, and the binding affinity and specificity of the SEQ ID NO: 2 peptide to HE4, ELISA assay was performed according to the manufacturer's instructions using CA125 protein (R&D Systems Inc, MN, USA), HE4 protein (Sinobiological, PA, USA), HRP-conjugated M13 antibody (Sinobiological, PA, USA), and TMB solution (Thermo Scientific, MA, USA). In addition, to measure the binding affinity Kd (dissociation constant), the discovered peptides of SEQ ID NO: 1 and SEQ ID NO: 2 were synthesized (Biostem, Suwon, Korea), CA125 protein and HE4 protein were each fluorescently labeled using Protein Labeling kit RED-NHS 2nd Generation (NanoTemper Technologies, Munich, Germany). Afterwards, the binding affinity between peptide and protein was measured using Monolith NT.115 (NanoTemper Technologies, Munich, Germany) according to the manufacturer's instructions.

[2] = system: CA125 protein; assay: ELISA assay of binding affinity and specificity; design: species or system human; conditions: HRP-conjugated M13 antibody, TMB, FIG. 1
Procedure: as §1

specific binding to HE4 protein [1]	specific binding to CA125 protein [2]	Substance
specifically bound to the HE4 protein	–	LGSKPIN [SEQ ID NO: 2, LGSKPIN]
–	specifically bound to the CA125 protein	HTHGAARVPDHR [SEQ ID NO: 1]
